# Biological target: Erk1 (Homo sapiens (Human), UniProt P27361)
# Assay: Protein Mass Modification Assay (intact protein MALDI)
# Type: binding
# Protocol: Protein Mass Modification Assay
# Intact protein: Erk1 from Millipore (Cat. No. 14-439) was incubated for 60 min. at room temperature with a 10-fold excess of test compound to protein. 4 μL aliquots of the resulting mixture were diluted with 15 μL of 0.2% TFA prior to micro C4 ZipTipping directly onto the MALDI target using sinapinic acid as the desorption matrix (10 mg/ml in 0.1% TFA:Acetonitrile 50:50, v/v). The centroid mass of the target protein in the control sample was compared with the centroid mass of the target protein incubated with compound. A shift in the centroid mass of the treated protein compared to the untreated protein was divided by the molecular weight of the compound. This number corresponds to the percentage of modified protein after one hour incubation. Results from this assay are reported in Table A under the column “ERK1 Mass Mod (%).”
# Erk1, sequence (P27361 whole entry, looked up): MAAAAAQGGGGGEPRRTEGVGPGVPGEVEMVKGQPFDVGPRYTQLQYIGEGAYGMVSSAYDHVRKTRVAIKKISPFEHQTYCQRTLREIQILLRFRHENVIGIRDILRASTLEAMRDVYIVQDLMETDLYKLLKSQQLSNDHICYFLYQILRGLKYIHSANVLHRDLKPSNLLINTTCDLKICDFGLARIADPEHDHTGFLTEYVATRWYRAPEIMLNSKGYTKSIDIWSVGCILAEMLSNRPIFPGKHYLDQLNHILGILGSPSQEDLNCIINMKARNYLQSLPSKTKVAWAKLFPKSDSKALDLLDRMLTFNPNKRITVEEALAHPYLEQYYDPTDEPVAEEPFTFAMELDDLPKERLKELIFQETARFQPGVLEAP
row,SMILES,ERK1 Mass Mod (%)
1,"C=CC(=O)Nc1ccccc1Nc1nc(NC2CCN(C=O)CC2)ncc1C(F)(F)F [Compound I-11, N-(2-((2-((1-formylpiperidin-4-yl)amino)-5-(trifluoromethyl)pyrimidin-4-yl)amino)phenyl)acrylamide]",E (provided a mass modification of ≧70%)
2,"C=C(C)S(=O)(=O)Nc1cc(F)ccc1Nc1nc(Nc2cc(C(C)=O)ccc2C)ncc1C(F)(F)F [Compound I-99, N-(2-((2-((5-acetyl-2-methylphenyl)amino)-5-(trifluoromethyl)pyrimidin-4-yl)amino)-5-fluorophenyl)prop-1-ene-2-sulfonamide]",G (proived a mass modification ≦30%)
3,"C=CC(=O)Nc1ccccc1Nc1nc(N[C@@H]2CCCN(C(C)=O)C2)ncc1Cl [Compound I-128, (R)—N-(2-((2-((1-acetylpiperidin-3-yl)amino)-5-chloropyrimidin-4-yl)amino)phenyl) acrylamide]",E (provided a mass modification of ≧70%)
4,"C=CC(=O)Nc1cc(C)ccc1Nc1nc(Nc2cc(OC)nc(N3CCN(C(C)=O)CC3)c2)ncc1C(F)(F)F [Compound I-93, N-(2-((2-((2-(4-Acetylpiperazin-1-yl)-6-methoxypyridin-4-yl)amino)-5-(trifluoromethyl)pyrimidin-4-yl)amino)-5-methylphenyl)acrylamide]",E (key: E: provided a mass modification of ≧70%; F: provided a mass modification of 31-69%; G: proived a mass modification ≦30%)
5,"C=CC(=O)Nc1cc(F)ccc1Nc1nc(N[C@@H]2CCC[C@H](C(N)=O)C2)ncc1Cl (racemic) [Compound I-112, Rac-cis-3-((4-((2-acrylamido-4-fluorophenyl)amino)-5-chloropyrimidin-2-yl)amino)cyclohexanecarboxamide]",E (provided a mass modification of ≧70%)
6,"C=CC(=O)Nc1ccccc1Nc1nc(N[C@H]2CCCN(C=O)C2)ncc1Cl [Compound I-122, (S)—N-(2-((5-chloro-2-((1-formylpiperidin-3-yl)amino)pyrimidin-4-yl)amino)phenyl)acrylamide]",E (provided a mass modification of ≧70%)
7,"C/C=C/C(=O)Nc1cc(F)ccc1Nc1nc(N[C@@H]2CCC[C@H](C(N)=O)C2)ncc1C(F)(F)F (racemic) [Compound I-6, Rac-(E)-3-((4-((2-(but-2-enamido)-4-fluorophenyl)amino)-5-(trifluoromethyl)pyrimidin-2-yl)amino)-cis-cyclohexanecarboxamide]",E (provided a mass modification of ≧70%)
8,"C=CC(=O)Nc1ccccc1Nc1nc(NC2CCC(F)(F)CC2)ncc1Cl [Compound I-127, N-(2-((5-chloro-2-((4,4-difluorocyclohexyl)amino)pyrimidin-4-yl)amino)phenyl) acrylamide]",E (provided a mass modification of ≧70%)
9,"C=CC(=O)Nc1cc(OC)ccc1Nc1nc(Nc2cc(Cl)nc(OC)c2)ncc1Cl [Compound I-245, N-(2-((5-chloro-2-((2-chloro-6-methoxypyridin-4-yl)amino)pyrimidin-4-yl)amino)-5-methoxyphenyl)acrylamide]",F (provided a mass modification of 31-69%)
10,"CC(=O)N1CCC[C@H](Nc2ncc(C(F)(F)F)c(Nc3ccccc3NC(=O)CCl)n2)C1 [Compound I-30, (S)—N-(2-((2-((1-Acetylpiperidin-3-yl)amino)-5-(trifluoromethyl)pyrimidin-4-yl)amino)phenyl)-2-chloroacetamide]",G (proived a mass modification ≦30%)
11,"C=CC(=O)Nc1ccccc1Nc1nc(Nc2ccc(N3CCOCC3)cc2OC)ncc1C(N)=O [Compound I-249, 4-((2-acrylamidophenyl)amino)-2-((2-methoxy-4-morpholinophenyl)amino)pyrimidine-5-carboxamide]",F (provided a mass modification of 31-69%)
12,"C=CC(=O)Nc1ccccc1Nc1nc(Nc2cc(C(=O)NOC)ccc2OC)ncc1C(F)(F)F [Compound I-67, 3-((4-((2-Acrylamidophenyl)amino)-5-(trifluoromethyl)pyrimidin-2-yl)amino)-N,4-dimethoxybenzamide]",E (provided a mass modification of ≧70%)
13,"C=CC(=O)N[C@@H]1CCCC[C@H]1Nc1nc(N[C@H]2CCCN(C(=O)CO)C2)ncc1C(F)(F)F [Compound I-32, N-((1R,2R)-2-((2-(((S)-1-(2-hydroxyacetyl)piperidin-3-yl)amino)-5-(trifluoromethyl)pyrimidin-4-yl)amino)cyclohexyl)acrylamide]",F (key: E: provided a mass modification of ≧70%; F: provided a mass modification of 31-69%; G: proived a mass modification ≦30%)
14,"C=CC(=O)N[C@@H]1CCCC[C@H]1Nc1nc(Nc2cc(C(N)=O)ccc2C)ncc1C(N)=O (racemic) [Compound I-255, Rac-trans-4-((2-acrylamidocyclohexyl)amino)-2-((5-carbamoyl-2-methylphenyl)amino)pyrimidine-5-carboxamide]",F (provided a mass modification of 31-69%)
15,"C=CC(=O)Nc1ccccc1Nc1nc(Nc2ccc3c(c2OC)CCCC(=O)N3CCN2CCOCC2)ncc1C(N)=O [Compound I-252, 4-((2-acrylamidophenyl)amino)-2-((6-methoxy-1-(2-morpholinoethyl)-2-oxo-2,3,4,5-tetrahydro-1H-benzo[b]azepin-7-yl)amino)pyrimidine-5-carboxamide]",F (provided a mass modification of 31-69%)
16,"O=C(CCl)Nc1ccccc1Nc1nc(N[C@H]2CCCN(C(=O)CCl)C2)ncc1C(F)(F)F [Compound I-31, (S)-2-Chloro-N-(2-((2-((1-(2-chloroacetyl)piperidin-3-yl)amino)-5-(trifluoromethyl)pyrimidin-4-yl)amino)phenyl)acetamide]",G (proived a mass modification ≦30%)

# The remaining lines, values ahead:
row,ERK1 Mass Mod (%),SMILES
1,E (provided a mass modification of ≧70%),"C=CC(=O)Nc1cc(C)ccc1Nc1nc(Nc2nc(OC)ncc2F)ncc1C(F)(F)F [Compound I-357, N-(2-((2-((5-fluoro-2-methoxypyrimidin-4-yl)amino)-5-(trifluoromethyl)pyrimidin-4-yl)amino)-5-methylphenyl)acrylamide]"
2,E (provided a mass modification of ≧70%),"C=CC(=O)Nc1ccccc1Nc1nc(Nc2ccc3c(c2OC)CCCC(=O)N3CCCNC(=O)OC(C)(C)C)ncc1Cl [Compound I-147, tert-butyl (3-(7-((4-((2-acrylamidophenyl)amino)-5-chloropyrimidin-2-yl)amino)-6-methoxy-2-oxo-2,3,4,5-tetrahydro-1H-benzo[b]azepin-1-yl)propyl)carbamate]"
3,E (provided a mass modification of ≧70%),C=CC(=O)Nc1ccccc1Nc1nc(Nc2ccc(N(CCCNC(=O)OC(C)(C)C)C(C)=O)cc2OC)ncc1Cl [Compound I-173]
4,E (provided a mass modification of ≧70%),"C=CC(=O)N[C@H]1CCCC[C@@H]1Nc1nc(N[C@H]2CCCN(C(=O)CO)C2)ncc1Cl (racemic) [Compound I-141, Rac-N-(2-((5-chloro-2-(((R)-1-(2-hydroxyacetyl)piperidin-3-yl)amino)pyrimidin-4-yl)amino)-trans-cyclohexyl)acrylamide]"
5,E (provided a mass modification of ≧70%),"C=CC(=O)Nc1ccccc1Nc1nc(Nc2cc(C(N)=O)ccc2C)ncc1C [Compound I-224, 3-(4-(2-acrylamidophenylamino)-5-methylpyrimidin-2-ylamino)-4-methyl benzamide]"
6,G (proived a mass modification ≦30%),"COc1cc(N2CCOCC2)ccc1Nc1ncc(C(C)=O)c(Nc2ccccc2N)n1 [Compound I-313, 1-(4-((2-aminophenyl)amino)-2-((2-methoxy-4-morpholinophenyl)amino)pyrimidin-5-yl)ethanone]"
7,E (provided a mass modification of ≧70%),"C=CC(=O)Nc1cc(C)ccc1Nc1nc(Nc2nc(OC)ncc2C#N)ncc1C(F)(F)F [Compound I-346, N-(2-((2-((5-cyano-2-methoxypyrimidin-4-yl)amino)-5-(trifluoromethyl)pyrimidin-4-yl)amino)-5-methylphenyl)acrylamide]"
8,G (proived a mass modification ≦30%),"C=CC(=O)Nc1ccccc1Nc1nc(Nc2ccc(N3CCOCC3)cc2OC)ncc1/C(C)=N/O [Compound I-275, (E)-N-(2-((5-(1-(hydroxyimino)ethyl)-2-((2-methoxy-4-morpholinophenyl)amino)pyrimidin-4-yl)amino)phenyl)acrylamide]"
9,E (provided a mass modification of ≧70%),"C=CC(=O)Nc1ccccc1Nc1nc(Nc2ccc(NC(=O)COC(C)=O)cc2OC)ncc1Cl [Compound I-183, 2-((4-((4-((2-acrylamidophenyl)amino)-5-chloropyrimidin-2-yl)amino)-3-methoxyphenyl)amino)-2-oxoethyl acetate]"
10,E (provided a mass modification of ≧70%),"C=CC(=O)Nc1cc(C)ccc1Nc1nc(Nc2cc(OCCOC)ncc2C)ncc1C(F)(F)F [Compound I-359, N-(2-((2-((2-(2-methoxyethoxy)-5-methylpyridin-4-yl)amino)-5-(trifluoromethyl)pyrimidin-4-yl)amino)-5-methylphenyl)acrylamide]"
11,E (provided a mass modification of ≧70%),"C=CC(=O)Nc1cc(C)ccc1Nc1nc(Nc2ncc(C(F)(F)F)c(OC)n2)ncc1C(F)(F)F [Compound I-354, N-(2-((2-((4-methoxy-5-(trifluoromethyl)pyrimidin-2-yl)amino)-5-(trifluoromethyl)pyrimidin-4-yl)amino)-5-methylphenyl)acrylamide]"

# Reference: patent publication US9796700B2 (Celgene CAR LLC, priority 2013, dated 2017)
